Columns and labels:
[1] = Human microsomal stability assay; format: in vitro ADME; details: human liver microsomes 0.5 mg/mL, 37° C., pH 7.4, NADPH regenerating system, 0-30 minutes
In short: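 Human liver microsomes (0.5 mg/mL) with […] compound in 100 mM potassium phosphate, pH 7.4, 37° C; reaction started with NADPH regenerating system after 10 min preincubation. Parent remaining at 0–30 min quantified by LC-MS/MS; clearance binned low (<7.0), medium (7.0-16.2) or high (16.2-23.2) mL/min/kg.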

human TLR9 = molecular target: T1, human TLR9 (Homo sapiens, UniProt Q9NR96); assay: HEK293-Blue-hTLR-9 cells assay; format: cell-based; details: HEK293-Blue-hTLR9 cells, ODN2006 stimulation, 20 hrs, SEAP reporter; read-out: HEK/hTLR9 IC50
T1 sequence (Q9NR96 26-1032): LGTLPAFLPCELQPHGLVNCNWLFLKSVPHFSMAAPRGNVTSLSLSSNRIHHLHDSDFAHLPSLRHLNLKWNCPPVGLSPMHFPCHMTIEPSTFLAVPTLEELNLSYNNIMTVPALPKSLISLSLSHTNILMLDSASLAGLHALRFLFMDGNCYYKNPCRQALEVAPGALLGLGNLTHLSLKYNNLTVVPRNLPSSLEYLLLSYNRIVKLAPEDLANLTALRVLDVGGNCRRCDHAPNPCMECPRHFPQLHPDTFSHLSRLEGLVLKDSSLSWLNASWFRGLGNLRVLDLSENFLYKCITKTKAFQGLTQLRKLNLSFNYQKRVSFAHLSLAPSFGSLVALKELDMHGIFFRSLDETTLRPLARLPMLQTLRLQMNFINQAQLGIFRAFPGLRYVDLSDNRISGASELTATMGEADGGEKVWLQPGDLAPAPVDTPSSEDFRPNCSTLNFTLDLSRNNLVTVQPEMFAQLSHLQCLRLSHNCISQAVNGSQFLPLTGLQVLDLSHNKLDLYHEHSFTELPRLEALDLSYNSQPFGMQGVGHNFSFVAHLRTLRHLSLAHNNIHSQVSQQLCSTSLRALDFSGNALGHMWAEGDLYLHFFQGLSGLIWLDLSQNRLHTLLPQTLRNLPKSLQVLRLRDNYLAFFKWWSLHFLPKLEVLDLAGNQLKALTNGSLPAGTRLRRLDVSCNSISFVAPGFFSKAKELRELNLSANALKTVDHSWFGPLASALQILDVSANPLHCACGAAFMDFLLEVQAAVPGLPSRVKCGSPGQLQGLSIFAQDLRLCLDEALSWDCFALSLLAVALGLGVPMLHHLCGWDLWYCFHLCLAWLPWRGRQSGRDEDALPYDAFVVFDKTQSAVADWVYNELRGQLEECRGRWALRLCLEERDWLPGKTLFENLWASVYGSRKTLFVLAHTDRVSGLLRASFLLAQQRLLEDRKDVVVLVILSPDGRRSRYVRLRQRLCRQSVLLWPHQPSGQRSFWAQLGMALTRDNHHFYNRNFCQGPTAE
In short: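 Antagonist mode in HEK293-Blue hTLR9 reporter cells (SEAP under NF-κB/AP-1 sites), stimulated with ODN2006 added from a 20 uM solution. Serially diluted compound (1% DMSO final) was incubated 20 hrs at 37° C. Supernatant SEAP was developed with QUANTI-Blue for 2 h at 37° C and read at 620˜655 nm.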

Row | CL (h) [1] | IC50 (human TLR9) | Compound
1 | 6.8 mL/min/kg | 106 nM | C[C@@H]1CN(c2ccc(C#N)c3ncccc23)C[C@@H]2c3ccc(N4CCNCC4)cc3CN12 [Example 1, 5-[(4R,10bS)-4-methyl-8-piperazin-1-yl-3,4,6,10b-tetrahydro-1H-pyrazino[2,1-a]isoindol-2-yl]quinoline-8-carbonitrile]
2 | 6.2 mL/min/kg | 95.8 nM | C[C@@H]1CN(c2ccc(C#N)c3ncccc23)C[C@@H]2c3ccc(N[C@@H]4CCCNC4)cc3CN12 [Example 65, 5-[(4R,10bS)-4-methyl-8-[[(3R)-3-piperidyl]amino]-3,4,6,10b-tetrahydro-1H-pyrazino[2,1-a]isoindol-2-yl]quinoline-8-carbonitrile]
3 | 7.3 mL/min/kg | 93 nM | CO[C@H]1CNC[C@H]1Nc1ccc2c(c1)CN1[C@H](C)CN(c3ccc(C#N)c4ncccc34)C[C@H]21 [Example 61, 5-[(4R,10bS)-8-[[(3R,4S)-4-methoxypyrrolidin-3-yl]amino]-4-methyl-3,4,6,10b-tetrahydro-1H-pyrazino[2,1-a]isoindol-2-yl]quinoline-8-carbonitrile]
4 | 6.2 mL/min/kg | 165 nM | C[C@@H]1CN(c2ccc(C#N)c3ncccc23)C[C@@H]2c3ccc(C(=O)N4CCC(C)(N)CC4)cc3CN12 [Example 88, 5-[(4R,10bS)-8-(4-amino-4-methyl-piperidine-1-carbonyl)-4-methyl-3,4,6,10b-tetrahydro-1H-pyrazino[2,1-a]isoindol-2-yl]quinoline-8-carbonitrile]
5 | 7.5 mL/min/kg | 84.5 nM | CO[C@H]1CNC[C@@H]1Nc1ccc2c(c1)CN1[C@H](C)CN(c3ccc(C#N)c4ncccc34)C[C@H]21 [Example 62, 5-[(4R,10bS)-8-[[(3S,4S)-4-methoxypyrrolidin-3-yl]amino]-4-methyl-3,4,6,10b-tetrahydro-1H-pyrazino[2,1-a]isoindol-2-yl]quinoline-8-carbonitrile]
6 | 8.4 mL/min/kg | 171 nM | C[C@@H]1CN(c2ccc(C#N)c3ncccc23)C[C@@H]2c3ccc(NCC4(F)CNC4)cc3CN12 [Example 69, 5-[(4R,10bS)-8-[(3-fluoroazetidin-3-yl)methylamino]-4-methyl-3,4,6,10b-tetrahydro-1H-pyrazino[2,1-a]isoindol-2-yl]quinoline-8-carbonitrile]
7 | 6.2 mL/min/kg | 203 nM | Cc1ccc(N2C[C@@H](C)N3Cc4cc(N[C@H]5CNC[C@H]5F)ccc4[C@H]3C2)c2cccnc12 [Example 75, (4R,10bS)—N-[(3S,4R)-4-fluoropyrrolidin-3-yl]-4-methyl-2-(8-methyl-5-quinolyl)-3,4,6,10b-tetrahydro-1H-pyrazino[2,1-a]isoindol-8-amine]
8 | 7.9 mL/min/kg | 73.5 nM | C[C@@H]1CN(c2ccc(C#N)c3ncccc23)C[C@@H]2c3ccc(NCCN4CC[C@H](O)C4)cc3CN12 [Example 68, 5-[(4R,10bS)-8-[2-[(3S)-3-hydroxypyrrolidin-1-yl]ethylamino]-4-methyl-3,4,6,10b-tetrahydro-1H-pyrazino[2,1-a]isoindol-2-yl]quinoline-8-carbonitrile]
9 | 6.2 mL/min/kg | 87.7 nM | N#Cc1ccc(N2CCN3Cc4cc(N5CCNCC5)ccc4C3C2)c2cccnc12 (stereo not drawn) [Example 3, 5-(8-piperazin-1-yl-3,4,6,10b-tetrahydro-1H-pyrazino[2,1-a]isoindol-2-yl)quinoline-8-carbonitrile]
10 | 7.8 mL/min/kg | 151 nM | C[C@@H]1CN(c2ccc(C#N)c3ncccc23)C[C@@H]2c3cc(F)c(N4CC5CNCC(C4)O5)cc3CN12 [Example 85, 5-[(4R,10bS)-9-fluoro-4-methyl-8-(9-oxa-3,7-diazabicyclo[3.3.1]nonan-3-yl)-3,4,6,10b-tetrahydro-1H-pyrazino[2,1-a]isoindol-2-yl]quinoline-8-carbonitrile]
11 | 6.8 mL/min/kg | 125 nM | C[C@H]1CN(c2ccc(C#N)c3ncccc23)C[C@H]2c3ccc(N4CCNCC4)cc3CN12 [Example 2, 5-[(4S,10bR)-4-methyl-8-piperazin-1-yl-3,4,6,10b-tetrahydro-1H-pyrazino[2,1-a]isoindol-2-yl]quinoline-8-carbonitrile]
12 | 6.2 mL/min/kg | 113 nM | C[C@@H]1CN(c2ccc(Cl)c3ncccc23)C[C@@H]2c3ccc(N[C@H]4CNC[C@H]4F)cc3CN12 [Example 79, (4R,10b)-2-(8-chloro-5-quinolyl)-N-[(3S,4R)-4-fluoropyrrolidin-3-yl]-4-methyl-3,4,6,10b-tetrahydro-1H-pyrazino[2,1-a]isoindol-8-amine]
13 | 7.4 mL/min/kg | 113 nM | CO[C@@H]1CNC[C@@H]1Nc1ccc2c(c1)CN1[C@H](C)CN(c3ccc(C#N)c4ncccc34)C[C@H]21 [Example 60, 5-[(4R,10bS)-8-[[(3S,4R)-4-methoxypyrrolidin-3-yl]amino]-4-methyl-3,4,6,10b-tetrahydro-1H-pyrazino[2,1-a]isoindol-2-yl]quinoline-8-carbonitrile]
14 |  | 126 nM | C[C@@H]1CN(c2ccc(C#N)c3ncccc23)C[C@@H]2c3cccc(N[C@H]4CNC[C@H]4F)c3CN12 [Example 81, 5-[(4R,10bS)-7-[[(3S,4R)-4-fluoropyrrolidin-3-yl]amino]-4-methyl-3,4,6,10b-tetrahydro-1H-pyrazino[2,1-a]isoindol-2-yl]quinoline-8-carbonitrile]
